Converted amounts (≈) assume the structure as drawn.
Key:
Diplodia maydis (Dm) = test: Growth inhibition assay of fungal pathogens, Dm; assay type: cell-based; details: Stenocarpella maydis; 48 hours; read-out: Concentration at 90% Inhibition, Dm
Method in brief: (§1)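 Spores in 17% V8 medium exposed to compound at final 50, 10, 2 ppm or 2, 0.4, 0.08 ppm, with 2% DMSO. OD600 and visual ratings taken at 24 and 48 h, with blank subtracted. Percent growth inhibition derived from 48 h readings relative to 2% DMSO control.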

Fungal ACC2 = Fungal ACC2 (UniProt Q00955); details: read-out: Fungal ACC2 (IC50, in vitro ACC2 inhibition)
C. albicans ATCC 90028 = test: Anti-Fungal Activity Assay (broth microtiter MIC), C. albicans; assay type: cell-based, Candida albicans; details: Candida albicans, ATCC90028, 48 h, 3 replicates; MIC recorded at 48 h; read-out: MIC C. albicans ATCC 90028
Method in brief: (§2)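 Candida strains were grown from frozen stock on Sabouraud dextrose agar overnight at 35° C, then suspended directly in RPMI 1640+MOPS and quantified against standard curves. Broth microdilution MIC plates followed CLSI M27-A3; MICs were read visually against growth control at 48 h, with a 24 h read added for soraphen.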

Rhizoctonia solani (Rs) = test: Growth inhibition assay of fungal pathogens, Rs; assay type: cell-based; details: 48 hours, read-out: Concentration at 90% Inhibition, Rs
[1] = test system: Fusarium virguliforme (Fv); test: Growth inhibition assay of fungal pathogens, Fv; assay type: cell-based; details: 48 hours, read-out: Concentration at 90% Inhibition, Fv
Method in brief: as §1

[2] = test system: Phytophthora capsici (Pc); test: Growth inhibition assay of fungal pathogens, Pc; assay type: cell-based; details: 48 hours, read-out: Concentration at 90% Inhibition, Pc
Method in brief: as §1

[3] = compound concentration 10 ppm, foliar spray, evaluated 7 days after inoculation
C. krusei ATCC 6258 = test: Anti-Fungal Activity Assay (broth microtiter MIC), C. krusei; assay type: cell-based, Candida krusei; details: Pichia kudriavzevii, ATCC6258, 48 h, 3 replicates; MIC recorded at 48 h; read-out: MIC C. krusei ATCC 6258
Method in brief: as §2

[4] = test system: Collectotrichum graminicola (Cg); test: Growth inhibition assay of fungal pathogens, Cg; assay type: cell-based; details: 48 hours; read-out: Concentration at 90% Inhibition, Cg
Method in brief: as §1

[5] = test system: Fusarium moniliforme (Fm); test: Growth inhibition assay of fungal pathogens, Fm; assay type: cell-based; details: Fusarium verticillioides; 48 hours; read-out: Concentration at 90% Inhibition, Fm
Method in brief: as §1

[6] = test system: C. parapsilosis ATCC 22019; test: Anti-Fungal Activity Assay (broth microtiter MIC), C. parapsilosis; assay type: cell-based, Candida parapsilosis; details: Lodderomyces parapsilosis, ATCC22019, 48 h, 3 replicates; MIC recorded at 48 h; read-out: MIC C. parapsilosis ATCC 22019
Method in brief: as §2

[7] = test system: Blumeria graminis f sp. hordei; test: Foliar protection test, barley powdery mildew control; assay type: in vivo, Blumeria graminis f sp. hordei on Hordeum vulgare cv. Perry; details: 168 h, compound concentration 50 ppm, foliar spray, evaluated 7 days after inoculation, read-out: Barley Powdery Mildew Control at 50 ppm
Method in brief: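 Barley cv. Perry at first true leaf (6 days) sprayed to wetness on both leaf sides with compound in 5% acetone/0.005% Tween 80, typically at 200, 100, 50, 10 or 2 ppm. Inoculated 24 h later by shaking spores from colonized plants; kept at 20-22 °C, 70% RH. Mildew colonization scored 7 days later as percent control.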

Botrtyis cinerea (Bc) = test: Growth inhibition assay of fungal pathogens, Bc; assay type: cell-based; details: 48 hours; read-out: Concentration at 90% Inhibition, Bc
Method in brief: as §1

Septoria tritici (St) = test: Growth inhibition assay of fungal pathogens, St; assay type: cell-based; details: Zymoseptoria tritici; 48 hours; read-out: Concentration at 90% Inhibition, St
Method in brief: as §1

Human ACC2 = Human ACC2 (Homo sapiens, UniProt O00763); test: In vitro ACC2 inhibition assay (ADP-Glo), human ACC2; assay type: biochemical; details: 5 nM ACC2, 20 μM ATP, 20 μM acetyl-CoA
Human ACC2, sequence (O00763 whole entry): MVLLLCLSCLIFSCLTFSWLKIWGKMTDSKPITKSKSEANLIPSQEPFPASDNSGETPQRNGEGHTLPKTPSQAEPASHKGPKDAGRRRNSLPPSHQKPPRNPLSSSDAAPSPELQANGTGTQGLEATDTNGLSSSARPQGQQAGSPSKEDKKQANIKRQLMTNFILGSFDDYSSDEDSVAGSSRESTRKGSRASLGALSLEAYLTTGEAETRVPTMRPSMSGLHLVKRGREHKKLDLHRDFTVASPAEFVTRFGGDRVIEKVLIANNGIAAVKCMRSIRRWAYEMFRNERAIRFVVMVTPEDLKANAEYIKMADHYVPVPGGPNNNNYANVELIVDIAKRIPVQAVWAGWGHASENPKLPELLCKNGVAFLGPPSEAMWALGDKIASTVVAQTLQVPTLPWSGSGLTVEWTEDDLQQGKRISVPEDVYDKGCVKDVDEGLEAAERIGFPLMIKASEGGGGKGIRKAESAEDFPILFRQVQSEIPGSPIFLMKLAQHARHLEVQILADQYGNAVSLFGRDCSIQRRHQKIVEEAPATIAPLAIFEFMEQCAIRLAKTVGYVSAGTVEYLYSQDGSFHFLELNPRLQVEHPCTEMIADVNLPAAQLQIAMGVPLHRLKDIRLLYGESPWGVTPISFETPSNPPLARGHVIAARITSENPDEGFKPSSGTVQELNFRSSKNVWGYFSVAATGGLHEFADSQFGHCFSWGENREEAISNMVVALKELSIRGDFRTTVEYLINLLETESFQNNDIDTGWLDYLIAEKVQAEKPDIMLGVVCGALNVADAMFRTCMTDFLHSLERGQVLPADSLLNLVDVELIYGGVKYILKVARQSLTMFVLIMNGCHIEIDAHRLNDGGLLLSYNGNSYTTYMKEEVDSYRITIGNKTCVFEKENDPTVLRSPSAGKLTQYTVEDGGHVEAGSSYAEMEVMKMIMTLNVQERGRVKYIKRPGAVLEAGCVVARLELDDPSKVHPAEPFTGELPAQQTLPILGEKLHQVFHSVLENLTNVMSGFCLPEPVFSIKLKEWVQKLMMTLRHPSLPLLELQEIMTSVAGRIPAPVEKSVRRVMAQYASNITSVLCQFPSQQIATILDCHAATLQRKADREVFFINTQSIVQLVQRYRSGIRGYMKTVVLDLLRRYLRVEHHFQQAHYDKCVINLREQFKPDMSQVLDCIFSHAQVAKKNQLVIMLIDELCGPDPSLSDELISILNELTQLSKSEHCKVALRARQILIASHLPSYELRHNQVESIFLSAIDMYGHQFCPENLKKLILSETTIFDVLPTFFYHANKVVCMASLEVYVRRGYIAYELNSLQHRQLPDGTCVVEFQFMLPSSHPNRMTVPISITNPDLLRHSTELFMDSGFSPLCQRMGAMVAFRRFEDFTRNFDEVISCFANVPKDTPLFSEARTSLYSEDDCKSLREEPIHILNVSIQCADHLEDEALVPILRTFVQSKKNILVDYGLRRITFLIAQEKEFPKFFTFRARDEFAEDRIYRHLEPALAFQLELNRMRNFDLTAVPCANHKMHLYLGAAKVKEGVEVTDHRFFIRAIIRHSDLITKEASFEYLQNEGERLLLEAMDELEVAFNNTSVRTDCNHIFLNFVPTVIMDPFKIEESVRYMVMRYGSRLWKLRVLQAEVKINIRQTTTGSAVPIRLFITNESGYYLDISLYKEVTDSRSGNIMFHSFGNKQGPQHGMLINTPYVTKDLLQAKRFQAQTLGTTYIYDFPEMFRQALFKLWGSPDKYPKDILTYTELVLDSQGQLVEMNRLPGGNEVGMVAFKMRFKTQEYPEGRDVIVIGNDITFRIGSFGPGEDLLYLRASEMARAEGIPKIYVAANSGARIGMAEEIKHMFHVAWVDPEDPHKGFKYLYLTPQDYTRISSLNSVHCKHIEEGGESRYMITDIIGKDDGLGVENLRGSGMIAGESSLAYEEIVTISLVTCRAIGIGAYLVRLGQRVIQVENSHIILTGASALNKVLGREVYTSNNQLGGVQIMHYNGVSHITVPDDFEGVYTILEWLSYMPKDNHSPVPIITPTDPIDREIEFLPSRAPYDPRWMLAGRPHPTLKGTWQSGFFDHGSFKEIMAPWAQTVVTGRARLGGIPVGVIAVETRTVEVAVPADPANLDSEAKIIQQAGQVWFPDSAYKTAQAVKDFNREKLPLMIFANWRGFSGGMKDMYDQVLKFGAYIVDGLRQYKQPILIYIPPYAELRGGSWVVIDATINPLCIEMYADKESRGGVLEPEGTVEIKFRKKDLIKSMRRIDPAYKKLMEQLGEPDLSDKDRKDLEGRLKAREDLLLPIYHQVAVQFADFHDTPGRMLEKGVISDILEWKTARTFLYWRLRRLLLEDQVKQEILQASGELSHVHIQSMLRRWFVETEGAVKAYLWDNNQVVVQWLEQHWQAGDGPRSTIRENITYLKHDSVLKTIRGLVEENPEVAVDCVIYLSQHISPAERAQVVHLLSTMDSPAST

Fungal ACC2, sequence (Q00955 whole entry): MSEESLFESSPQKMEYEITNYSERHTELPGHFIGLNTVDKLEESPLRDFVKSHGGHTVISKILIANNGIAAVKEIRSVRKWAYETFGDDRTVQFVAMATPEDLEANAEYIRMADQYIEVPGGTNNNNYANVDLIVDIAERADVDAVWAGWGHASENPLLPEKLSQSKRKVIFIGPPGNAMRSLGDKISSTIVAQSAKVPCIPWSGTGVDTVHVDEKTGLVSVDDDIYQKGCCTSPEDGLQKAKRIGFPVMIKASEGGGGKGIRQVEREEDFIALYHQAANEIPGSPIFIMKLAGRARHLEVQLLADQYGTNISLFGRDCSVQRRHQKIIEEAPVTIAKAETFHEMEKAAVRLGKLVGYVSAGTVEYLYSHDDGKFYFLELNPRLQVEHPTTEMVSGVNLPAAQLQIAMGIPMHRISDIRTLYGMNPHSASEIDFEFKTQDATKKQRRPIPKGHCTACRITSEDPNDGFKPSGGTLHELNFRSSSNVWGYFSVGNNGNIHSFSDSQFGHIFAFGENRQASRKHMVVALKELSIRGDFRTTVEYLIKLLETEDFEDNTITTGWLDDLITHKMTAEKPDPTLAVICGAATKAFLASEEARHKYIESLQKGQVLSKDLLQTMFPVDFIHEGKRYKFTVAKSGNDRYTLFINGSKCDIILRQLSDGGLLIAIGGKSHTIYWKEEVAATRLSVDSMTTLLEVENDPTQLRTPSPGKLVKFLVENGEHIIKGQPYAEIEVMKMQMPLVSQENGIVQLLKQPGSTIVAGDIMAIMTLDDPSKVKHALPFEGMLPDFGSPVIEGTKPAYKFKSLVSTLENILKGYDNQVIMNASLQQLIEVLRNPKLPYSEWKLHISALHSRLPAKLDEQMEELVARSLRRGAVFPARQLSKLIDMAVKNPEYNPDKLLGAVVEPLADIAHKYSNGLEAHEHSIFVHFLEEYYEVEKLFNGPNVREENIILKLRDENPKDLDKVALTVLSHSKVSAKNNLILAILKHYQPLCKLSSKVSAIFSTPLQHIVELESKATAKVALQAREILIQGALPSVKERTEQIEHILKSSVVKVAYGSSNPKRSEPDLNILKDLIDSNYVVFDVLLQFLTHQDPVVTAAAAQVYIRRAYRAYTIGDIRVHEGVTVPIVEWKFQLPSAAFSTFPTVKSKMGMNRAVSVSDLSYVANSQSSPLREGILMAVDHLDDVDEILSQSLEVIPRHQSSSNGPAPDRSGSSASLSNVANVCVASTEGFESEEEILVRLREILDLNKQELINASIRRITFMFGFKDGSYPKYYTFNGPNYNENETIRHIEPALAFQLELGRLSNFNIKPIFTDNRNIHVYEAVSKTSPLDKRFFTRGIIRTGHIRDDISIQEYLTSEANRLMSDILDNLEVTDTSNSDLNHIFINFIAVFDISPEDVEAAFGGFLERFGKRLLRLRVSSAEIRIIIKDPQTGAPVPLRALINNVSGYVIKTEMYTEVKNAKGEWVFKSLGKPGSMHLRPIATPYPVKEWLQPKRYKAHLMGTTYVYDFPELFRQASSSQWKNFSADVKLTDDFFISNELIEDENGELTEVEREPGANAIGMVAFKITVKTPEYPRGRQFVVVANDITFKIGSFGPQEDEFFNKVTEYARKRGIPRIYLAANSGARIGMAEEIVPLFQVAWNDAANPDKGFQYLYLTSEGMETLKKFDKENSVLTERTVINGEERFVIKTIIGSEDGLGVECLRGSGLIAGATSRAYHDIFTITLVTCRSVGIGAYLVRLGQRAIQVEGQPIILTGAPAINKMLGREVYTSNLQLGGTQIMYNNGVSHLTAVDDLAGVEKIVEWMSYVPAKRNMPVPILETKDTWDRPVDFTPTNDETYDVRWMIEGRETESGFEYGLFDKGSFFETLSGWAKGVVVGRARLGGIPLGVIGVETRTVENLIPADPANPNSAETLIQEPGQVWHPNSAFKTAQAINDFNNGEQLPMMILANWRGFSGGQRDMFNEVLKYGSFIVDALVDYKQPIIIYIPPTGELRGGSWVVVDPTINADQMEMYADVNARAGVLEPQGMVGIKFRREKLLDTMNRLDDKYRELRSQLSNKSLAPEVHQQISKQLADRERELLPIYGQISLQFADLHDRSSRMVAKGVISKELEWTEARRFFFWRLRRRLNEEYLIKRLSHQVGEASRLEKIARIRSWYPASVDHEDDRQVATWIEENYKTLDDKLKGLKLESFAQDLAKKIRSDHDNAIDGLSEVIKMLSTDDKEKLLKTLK

Row | SMILES | IC90 (Diplodia maydis (Dm)) [mg/L] | IC50 (Fungal ACC2) [µM] | MIC (C. albicans ATCC 90028) [mg/L] | IC90 (Rhizoctonia solani (Rs)) [mg/L] | IC90 [1] [mg/L] | IC90 [2] [mg/L] | Barley Powdery Mildew Control at 10 ppm [3] | MIC (C. krusei ATCC 6258) [mg/L] | IC90 [4] [mg/L] | IC90 [5] [mg/L] | MIC [6] [mg/L] | pest or weed control at 50 ppm [7] [%] | IC90 (Botrtyis cinerea (Bc)) [mg/L] | IC90 (Septoria tritici (St)) [mg/L] | IC50 (Human ACC2) [µM]
1 | COCCO[C@@H](Cn1c(=O)n([C@@H]2CCN(C)C2=O)c(=O)c2c(C)c(-n3nccn3)sc21)c1cc(F)ccc1OC [Compound I-28, 1-((R)-2-(5-fluoro-2-methoxyphenyl)-2-(2-methoxy-ethoxy)ethyl)-5-methyl-3-((R)-1-methyl-2-oxopyrrolidin-3-yl)-6-(2H-1,2,3-triazol-2-yl)thieno[2,3-d]pyrimidine-2,4(1H, 3H)-dione] | > 50 | 0.002 to 0.01 | 2.1 to 4 (≈ 3.67 to 6.99 µM) | 10 (≈ 17.5 µM) | > 50 | > 50 | A (provided a compound having from 70% to 84% control of barley powdery mildew) | 2.1 to 4 (≈ 3.67 to 6.99 µM) | > 50 | 2 (≈ 3.49 µM) | 2.1 to 4 (≈ 3.67 to 6.99 µM) | > 85 | 2 (≈ 3.49 µM) | > 50 | 0.01 to 0.1
2 | COCCO[C@@H](Cn1c(=O)n([C@H]2CCCNC2=O)c(=O)c2c(C)c(-n3nccn3)sc21)c1cc(F)ccc1OC [Compound I-29, 1-((R)-2-(5-fluoro-2-methoxyphenyl)-2-(2-methoxy-ethoxy)ethyl)-5-methyl-3-((S)-2-oxopiperidin-3-yl)-6-(2H-1,2,3-triazol-2-yl)thieno[2,3-d]pyrimidine-2,4(1H,3H)-dione] | > 50 | 0.0007 to 0.002 | 2.1 to 4 (≈ 3.67 to 6.99 µM) | > 50 | > 50 | > 50 | C (provided a compound having from 25 to 49% control of barley powdery mildew) | 2.1 to 4 (≈ 3.67 to 6.99 µM) | > 50 | 10 (≈ 17.5 µM) | 2.1 to 4 (≈ 3.67 to 6.99 µM) | 70 to 84 | 10 (≈ 17.5 µM) | > 50 | 0.01 to 0.1
3 | COCCO[C@@H](Cn1c(=O)n([C@@H]2CCCNC2=O)c(=O)c2c(C)c(-n3nccn3)sc21)c1cc(F)ccc1OC [Compound I-30, 1-((R)-2-(5-fluoro-2-methoxyphenyl)-2-(2-methoxy-ethoxy)ethyl)-5-methyl-3-((R)-2-oxopiperidin-3-yl)-6-(2H-1,2,3-triazol-2-yl)thieno[2,3-d]pyrimidine-2,4(1H,3H)-dione] | > 50 | 0.0007 to 0.002 | 2.1 to 4 (≈ 3.67 to 6.99 µM) | > 50 | > 50 | > 50 | D (provided a compound having <25% control of barley powdery mildew) | 2.1 to 4 (≈ 3.67 to 6.99 µM) | > 50 | > 50 | 2.1 to 4 (≈ 3.67 to 6.99 µM) | 50 to 69 | 10 (≈ 17.5 µM) | > 50 | 0.01 to 0.1
4 | COCCO[C@@H](Cn1c(=O)n([C@H]2CCCN(C)C2=O)c(=O)c2c(C)c(-n3nccn3)sc21)c1cc(F)ccc1OC [Compound I-31, 1-((R)-2-(5-fluoro-2-methoxyphenyl)-2-(2-methoxy-ethoxy)ethyl)-5-methyl-3-((S)-1-methyl-2-oxopiperidin-3-yl)-6-(2H-1,2,3-triazol-2-yl)thieno[2,3-d]pyrimidine-2,4(1H,3H)-dione] | > 50 | 0.0007 to 0.002 | 2.1 to 4 (≈ 3.58 to 6.82 µM) | > 50 | 2 (≈ 3.41 µM) | > 50 | B (provided a compound having from 50 to 69% control of barley powdery mildew) | 2.1 to 4 (≈ 3.58 to 6.82 µM) | > 50 | 2 (≈ 3.41 µM) | 2.1 to 4 (≈ 3.58 to 6.82 µM) | 70 to 84 | 10 (≈ 17 µM) | > 50 | 0.01 to 0.1
5 | COCCO[C@@H](Cn1c(=O)n([C@@H]2CCCN(C)C2=O)c(=O)c2c(C)c(-n3nccn3)sc21)c1cc(F)ccc1OC [Compound I-32, 1-((R)-2-(5-fluoro-2-methoxyphenyl)-2-(2-methoxy-ethoxy)ethyl)-5-methyl-3-((R)-1-methyl-2-oxopiperidin-3-yl)-6-(2H-1,2,3-triazol-2-yl)thieno[2,3-d]pyrimidine-2,4(1H,3H)-dione] | > 50 | 0.0007 to 0.002 | 2.1 to 4 (≈ 3.58 to 6.82 µM) | > 50 | > 50 | > 50 | C (provided a compound having from 25 to 49% control of barley powdery mildew) | 2.1 to 4 (≈ 3.58 to 6.82 µM) | > 50 | 2 (≈ 3.41 µM) | 2.1 to 4 (≈ 3.58 to 6.82 µM) | 70 to 84 | 10 (≈ 17 µM) | > 50 | 0.01 to 0.1
6 | COCCO[C@@H](Cn1c(=O)n([C@@H]2CCNC2=O)c(=O)c2c(C)c(-n3cccn3)sc21)c1cc(F)ccc1OC [Compound I-42, 1-((R)-2-(5-fluoro-2-methoxyphenyl)-2-(2-methoxy-ethoxy)ethyl)-5-methyl-3-((R)-2-oxopyrrolidin-3-yl)-6-(1H-pyrazol-1-yl)thieno[2,3-d]pyrimidine-2,4(1H,3H)-dione] | > 50 | 0.002 to 0.01 | 2.1 to 4 (≈ 3.77 to 7.17 µM) | > 50 | > 50 | > 50 | D (provided a compound having <25% control of barley powdery mildew) | 2.1 to 4 (≈ 3.77 to 7.17 µM) | > 50 | > 50 | 2.1 to 4 (≈ 3.77 to 7.17 µM) | 25 to 49 | > 50 | > 50 | 0.01 to 0.1
7 | COCCO[C@@H](Cn1c(=O)n([C@@H]2CCN(C)C2=O)c(=O)c2c(C)c(-n3cccn3)sc21)c1cc(F)ccc1OC [Compound I-44, 1-((R)-2-(5-fluoro-2-methoxyphenyl)-2-(2-methoxy-ethoxy)ethyl)-5-methyl-3-((R)-1-methyl-2-oxopyrrolidin-3-yl)-6-(1H-pyrazol-1-yl)thieno[2,3-d]pyrimidine-2,4(1H,3H)-dione] | > 50 | 0.002 to 0.01 | 2.1 to 4 (≈ 3.67 to 7 µM) | > 50 | > 50 | > 50 | D (provided a compound having <25% control of barley powdery mildew) | 2.1 to 4 (≈ 3.67 to 7 µM) | > 50 | 10 (≈ 17.5 µM) | 2.1 to 4 (≈ 3.67 to 7 µM) | 70 to 84 | > 50 | > 50 | 0.01 to 0.1
8 | COCCO[C@@H](Cn1c(=O)n([C@H]2CCCNC2=O)c(=O)c2c(C)c(-n3cccn3)sc21)c1cc(F)ccc1OC [Compound I-45, 1-((R)-2-(5-fluoro-2-methoxyphenyl)-2-(2-methoxy-ethoxy)ethyl)-5-methyl-3-((S)-2-oxopiperidin-3-yl)-6-(I H-pyrazol-1-yl)thieno[2,3-d]pyrimidine-2,4(1H,3H)-dione] | > 50 | 0.002 to 0.01 | 2.1 to 4 (≈ 3.67 to 7 µM) | > 50 | > 50 | > 50 | D (provided a compound having <25% control of barley powdery mildew) | 2.1 to 4 (≈ 3.67 to 7 µM) | > 50 | > 50 | 2.1 to 4 (≈ 3.67 to 7 µM) | 50 to 69 | > 50 | > 50 | 0.01 to 0.1

Reference: US20190330224A1, “ACC INHIBITORS AND USES THEREOF” (Gilead Apollo, LLC, priority 2015, published 2019)
